Assays:
VSV-SARS-CoV-2 [1] = type: cell-based
SARS-CoV-2 WT strain = system: SARS-CoV-2 WT strain; design: species or system K18-hACE2 mice; conditions: mouse, in vivo
VSV-SARS-CoV-2 [2] = type: cell-based; remark: listed apart in the source
A549-ACE2 cells = assay: Cytotoxicity to A549-ACE2 cells, CellTiter-Glo Assay; type: cell-based, human; conditions: 0.1625 nM to 2.5 nM, 24 h
Procedure: FIG. 6. Ponatinib cytotoxicity to A549-ACE2 cells at the concentration range of 0.1625 nM to 2.5 nM). A549-ACE2 cells were treated with ponatinib for 24 h and the cell viability was detected by CellTiter-Glo Assay.

SARS-CoV-2 = type: cell-based

| Compound | inhibition of viral infection / plaque formation, side-by-side comparison (VSV-SARS-CoV-2 [1]) | body weight of infected mice (SARS-CoV-2 WT strain) | expression of SARS-CoV-2 nucleocapsid protein (NP) in lung tissues (IHC) (SARS-CoV-2 WT strain) | survival of infected mice (SARS-CoV-2 WT strain) | survival of infected mice at different doses (SARS-CoV-2 WT strain) | viral RNA copies in the lung (quantitative real-time PCR) (SARS-CoV-2 WT strain) | viral titer in the lung (plaque assay) (SARS-CoV-2 WT strain) | screening outcome, inhibition of infection by VSV-SARS-CoV-2 (VSV-SARS-CoV-2 [2]) | inhibition of VSV-SARS-CoV-2 infectivity (VSV-SARS-CoV-2 [1]) | inhibition of VSV-SARS-CoV-2 under four treatment conditions (concomitant, virus pre-incubated, cells pretreated, treatment after infection) (VSV-SARS-CoV-2 [1]) | A549-ACE2 cell viability (A549-ACE2 cells) | reduction of viral infection by live SARS-CoV-2 (plaque assay) (SARS-CoV-2) |
| --- | --- | --- | --- | --- | --- | --- | --- | --- | --- | --- | --- | --- |
| Cc1ccc(C(=O)Nc2ccc(CN3CCN(C)CC3)c(C(F)(F)F)c2)cc1C#Cc1cnc2[nH]ncc2c1 [olverembatinib] | not olverembatinib treatment inhibited plaque formation |  |  |  |  |  |  |  |  |  |  |  |
| Cc1ccc(C(=O)Nc2ccc(CN3CCN(C)CC3)c(C(F)(F)F)c2)cc1C#Cc1cnc2cccnn12 [ponatinib] | inhibited plaque formation | two of the five mice treated with ponatinib started to regain body weight on day 7 | markedly lower | lived significantly longer than the control group | Dose-dependent effect | much lower than in the PBS group | significantly decreased the viral load in the lung | several candidates including ponatinib | significantly inhibited VSV-SARS-CoV-2 in a dose-dependent manner | could inhibit VSV-SARS-CoV-2 under all these conditions | no effect on A549-ACE2 cell viability | significantly reduced viral infection |

Source: patent publication US20240041875A1 (priority 2022, published 2024)
